From ChEMBL document CHEMBL1240297 (Cancer Res, 2005)
The source made the active and inactive calls. The calls are words filed in the database; no cut-off is given here. Where a SMILES comes first, the peptide text is derived from it. The star is where a group is joined. Cbz = O=C(OCc1ccccc1)*

How the values were obtained:
NCI-H929 [1] = assay: Induction of apoptosis in human NCI-H929 cells assessed as dephosphorylation of pRb at S249/T252 at 60 uM after 1.5 hrs by immunoblotting; type: functional, cell-based
NCI-H929 [2] = assay: Induction of apoptosis in human NCI-H929 cells assessed as changes in survivin protein level at 60 uM after 3 hrs by immunoblotting; type: functional, cell-based
NCI-H929 [3] = assay: Induction of apoptosis in human NCI-H929 cells assessed as changes in XIAP protein level at 60 uM after 3 hrs by immunoblotting; type: functional, cell-based
[4] = Cytotoxicity against human NCI-H929 cells after 72 hrs by alamar blue assay; type: functional, cell-based; conditions: NCI-H929, 72 h
LP-1 [5] = assay: Cytotoxicity against human LP-1 cells after 72 hrs by alamar blue assay; type: functional, cell-based; conditions: LP-1, 72 h
U-266 = assay: Cytotoxicity against human U266 cells after 72 hrs by alamar blue assay; type: functional, cell-based; conditions: U-266, 72 h
OPM-2 = assay: Cytotoxicity against human OPM2 cells after 72 hrs by alamar blue assay; type: functional, cell-based; conditions: OPM-2, 72 h
[6] = Cytotoxicity against human RPM18226 cells after 72 hrs by alamar blue assay; type: functional, cell-based; conditions: RPMI-8226, 72 h
NCI-H929 [7] = assay: Induction of apoptosis in human NCI-H929 cells assessed as reduction of RNA polymerase 2 phosphoserine 2 level at 60 uM after 1.5 hrs by immunoblotting; type: functional, cell-based
NCI-H929 [8] = assay: Induction of apoptosis in human NCI-H929 cells assessed as reduction of RNA polymerase 2 phosphoserine 5 level at 60 uM after 1.5 hrs by immunoblotting; type: functional, cell-based
NCI-H929 [9] = assay: Induction of apoptosis in human NCI-H929 cells assessed as reduction of total RNA polymerase 2 level at 60 uM after 1.5 hrs by immunoblotting; type: functional, cell-based
NCI-H929 [10] = assay: Induction of apoptosis in human NCI-H929 cells assessed as fast migrating hypophosphorylated RNA polymerase 2A form at 60 uM after 1.5 hrs by immunoblotting; type: functional, cell-based
NCI-H929 [11] = assay: Induction of apoptosis in human NCI-H929 cells assessed as […] slow migrating hyperphosphorylated RNA polymerase 2O form at 60 uM after 1.5 hrs by immunoblotting; type: functional, cell-based
NCI-H929 [12] = assay: Induction of apoptosis in human NCI-H929 cells assessed as dephosphorylation of pRb at S249/T252 at 60 uM after 8 hrs by immunoblotting; type: functional, cell-based
NCI-H929 [13] = assay: Induction of apoptosis in human NCI-H929 cells assessed as reduction of Mcl-1 protein level at 60 uM after 3 hrs by immunoblotting; type: functional, cell-based
NCI-H929 [14] = assay: Induction of apoptosis in human NCI-H929 cells assessed as changes in Bcl-2 protein level at 60 uM after 3 hrs by immunoblotting; type: functional, cell-based
NCI-H929 [15] = assay: Induction of apoptosis in human NCI-H929 cells assessed as increase in level of cleaved PARP at 60 uM after 5 hrs by immunoblotting; type: functional, cell-based
NCI-H929 [16] = assay: Induction of apoptosis in human NCI-H929 cells assessed as reduction of Hdm2 level at 60 uM after 1.5 hrs by immunoblotting; type: functional, cell-based
NCI-H929 [17] = assay: Induction of apoptosis in human NCI-H929 cells assessed as increase of p53 accumulation at 60 uM after 1.5 hrs by immunoblotting; type: functional, cell-based
[18] = Selectivity ratio of IC50 for CDK9/cyclin T to IC50 for CDK7/cyclin H
[19] = Selectivity ratio of IC50 for CDK9/cyclin T to IC50 for CDK2/cyclin E
LP-1 [20] = assay: Induction of apoptosis in human LP-1 cells assessed as increase in level of cleaved PARP at 300 nM after 16 hrs by immunoblotting; type: functional, cell-based
LP-1 [21] = assay: Induction of apoptosis in human LP-1 cells assessed as reduction of Mcl-1 protein level at 300 nM after 16 hrs by immunoblotting; type: functional, cell-based
NCI-H929 [22] = assay: Induction of apoptosis in human NCI-H929 cells assessed as changes in XIAP protein level at 30 uM after 3 hrs by immunoblotting; type: functional, cell-based
NCI-H929 [23] = assay: Induction of apoptosis in human NCI-H929 cells assessed as changes in survivin protein level at 30 uM after 3 hrs by immunoblotting; type: functional, cell-based
NCI-H929 [24] = assay: Induction of apoptosis in human NCI-H929 cells at 30 uM after 3 hrs using TUNEL staining by flow cytometry; type: functional, cell-based
LP-1 [25] = assay: Induction of apoptosis in human LP-1 cells at 30 uM after 3 hrs using TUNEL staining by flow cytometry; type: functional, cell-based
RPMI-8226 [26] = assay: Induction of apoptosis in human RPM18226 cells at 30 uM after 3 hrs using TUNEL staining by flow cytometry; type: functional, cell-based
NCI-H929 [27] = assay: Induction of apoptosis in human NCI-H929 cells at 30 uM after 24 hrs using TUNEL staining by flow cytometry; type: functional
LP-1 [28] = assay: Induction of apoptosis in human LP-1 cells at 30 uM after 24 hrs using TUNEL staining by flow cytometry; type: functional
RPMI-8226 [29] = assay: Induction of apoptosis in human RPM18226 cells at 30 uM after 24 hrs using TUNEL staining by flow cytometry; type: functional
LP-1 [30] = assay: Cytotoxicity against human LP-1 cells assessed as reduction of cell viability at 20 to 30 uM treated for 8 hrs followed by washout measured after total 72 hrs growth period alamar blue assay relative to control; type: functional
NCI-H929 [31] = assay: Cytotoxicity against human NCI-H929 cells assessed as reduction of cell viability at 20 to 30 uM treated for 16 hrs followed by washout measured after total 72 hrs growth period alamar blue assay relative to control; type: functional, cell-based
LP-1 [32] = assay: Cytotoxicity against human LP-1 cells assessed as reduction of cell viability at 20 to 30 uM treated for 24 hrs followed by washout measured after total 72 hrs growth period alamar blue assay relative to control; type: functional, cell-based
NCI-H929 [33] = assay: Induction of apoptosis in human NCI-H929 cells assessed as reduction of RNA polymerase 2 phosphoserine 2 level at 30 uM after 1.5 hrs by immunoblotting; type: functional, cell-based
NCI-H929 [34] = assay: Induction of apoptosis in human NCI-H929 cells assessed as reduction of RNA polymerase 2 phosphoserine 5 level at 30 uM after 1.5 hrs by immunoblotting; type: functional, cell-based
NCI-H929 [35] = assay: Induction of apoptosis in human NCI-H929 cells assessed as reduction of total RNA polymerase 2 level at 30 uM after 1.5 hrs by immunoblotting; type: functional, cell-based
NCI-H929 [36] = assay: Induction of apoptosis in human NCI-H929 cells assessed as fast migrating hypophosphorylated RNA polymerase 2A form at 30 uM after 1.5 hrs by immunoblotting; type: functional, cell-based
NCI-H929 [37] = assay: Induction of apoptosis in human NCI-H929 cells assessed as […] slow migrating hyperphosphorylated RNA polymerase 2O form at 30 uM after 1.5 hrs by immunoblotting; type: functional, cell-based
NCI-H929 [38] = assay: Induction of apoptosis in human NCI-H929 cells assessed as dephosphorylation of pRb at S249/T252 at 30 uM after 1.5 hrs by immunoblotting; type: functional, cell-based
NCI-H929 [39] = assay: Induction of apoptosis in human NCI-H929 cells assessed as effect on total pRb level at 30 uM after 1.5 hrs by immunoblotting; type: functional, cell-based
NCI-H929 [40] = assay: Induction of apoptosis in human NCI-H929 cells assessed as reduction of Mcl-1 protein level at 30 uM after 3 hrs by immunoblotting; type: functional, cell-based
NCI-H929 [41] = assay: Induction of apoptosis in human NCI-H929 cells assessed as changes in Bcl-2 protein level at 30 uM after 3 hrs by immunoblotting; type: functional, cell-based
NCI-H929 [42] = assay: Induction of apoptosis in human NCI-H929 cells assessed as reduction of Hdm2 level at 30 uM after 1.5 hrs by immunoblotting; type: functional, cell-based
NCI-H929 [43] = assay: Induction of apoptosis in human NCI-H929 cells assessed as increase of p53 accumulation at 30 uM after 1.5 hrs by immunoblotting; type: functional, cell-based
LP-1 [44] = assay: Induction of apoptosis in human LP-1 cells assessed as reduction of RNA polymerase 2 phosphoserine 2 level at 30 uM after 1.5 hrs by immunoblotting; type: functional, cell-based
RPMI-8226 [45] = assay: Induction of apoptosis in human RPM18226 cells assessed as reduction of RNA polymerase 2 phosphoserine 2 level at 30 uM after 1.5 hrs by immunoblotting; type: functional, cell-based
LP-1 [46] = assay: Induction of apoptosis in human LP-1 cells assessed as reduction of Mcl-1 protein level at 30 uM after 3 hrs by immunoblotting; type: functional, cell-based
RPMI-8226 [47] = assay: Induction of apoptosis in human RPM18226 cells assessed as reduction of Mcl-1 protein level at 30 uM after 3 hrs by immunoblotting; type: functional, cell-based
[48] = Inhibition of CDK9/cyclin T

SMILES: OC[C@H]1O[C@@H](n2cnc3cc(Cl)c(Cl)cc32)[C@H](O)[C@@H]1O [DICHLORORIBOBENZIMIDAZOLE]
- Activity (NCI-H929 [1]): inactive
- Activity (NCI-H929 [2]): Active
- Activity (NCI-H929 [3]): Active
- IC50 [4]: 20.1 µM
- IC50 (LP-1 [5]): 29.8 µM
- IC50 (U-266): 41 µM
- IC50 (OPM-2): 29.5 µM
- IC50 [6]: 46.8 µM
- Activity (NCI-H929 [7]): Active
- Activity (NCI-H929 [8]): Active
- Activity (NCI-H929 [9]): inactive
- Activity (NCI-H929 [10]): Active
- Activity (NCI-H929 [11]): Active
- Activity (NCI-H929 [12]): Active
- Activity (NCI-H929 [13]): Active
- Activity (NCI-H929 [14]): Active
- Activity (NCI-H929 [15]): Active
- Activity (NCI-H929 [16]): Active
- Activity (NCI-H929 [17]): Active
- Ratio IC50 [18]: 25
- Ratio IC50 [19]: 25

SMILES: CC(C)C[C@@H](C=O)NC(=O)[C@H](CC(C)C)NC(=O)[C@H](CC(C)C)NC(=O)OCc1ccccc1 (Cbz-Leu-Leu-Leu-aldehyde)
- Activity (LP-1 [20]): Active
- Activity (LP-1 [21]): inactive

SMILES: CC[C@H](CO)Nc1nc(NCc2ccccc2)c2ncn(C(C)C)c2n1 [SELICICLIB]
- Activity (NCI-H929 [22]): Active
- Activity (NCI-H929 [23]): Active
- IC50 (LP-1 [5]): 12.7 µM
- IC50 (U-266): 17.9 µM
- IC50 (OPM-2): 18.5 µM
- IC50 [6]: 19.5 µM
- Activity (NCI-H929 [24]): Active
- Activity (LP-1 [25]): Active
- Activity (RPMI-8226 [26]): Active
- Activity (NCI-H929 [27]): >=60%
- Activity (LP-1 [28]): >=60%
- Activity (RPMI-8226 [29]): >=60%
- Activity (LP-1 [30]): 50%
- Activity (NCI-H929 [31]): Active
- Activity (LP-1 [32]): Active
- Activity (NCI-H929 [33]): Active
- Activity (NCI-H929 [34]): Active
- Activity (NCI-H929 [35]): inactive
- Activity (NCI-H929 [36]): inactive
- Activity (NCI-H929 [37]): Active
- Activity (NCI-H929 [38]): Active
- Activity (NCI-H929 [39]): inactive
- Activity (NCI-H929 [40]): Active
- Activity (NCI-H929 [41]): Active
- Activity (NCI-H929 [42]): Active
- Activity (NCI-H929 [43]): Active
- Activity (LP-1 [44]): Active
- Activity (RPMI-8226 [45]): Active
- Activity (LP-1 [46]): Active
- Activity (RPMI-8226 [47]): Active
- IC50 [48]: 0.81 µM
